The procedure of series [1]:
NIM is used to treat extra-articular and articular inflammatory forms. […] Phase solubility study was carried out according to the method described by Higuchi to study the influence of the complexation of different cyclodextrins on the solubility of NIM. Native cyclodextrins, modified cyclodextrins, cyclodextrin copolymers and cyclodextrin tetrapolymers were used. The cyclodextrin tetrapolymer, based on 35% of alpha-cyclodextrin, 35% beta-cyclodextrin and 30% gamma-cyclodextrin, is synthesized by direct melt polycondensation according to the example 1 and the ratio cyclodextrin/citric acid is 1/3.
Phase Solubility Method: Higuchi's Method
Suspensions were shaken at a temperature of 37° C. on a rotary flask shaker for 7 days and supernatants were filtered through polycarbonate membrane (0.45 μm pore size).

For series [2] the following is noted: native cyclodextrins; cited from earlier work.

In brackets after ≈: the same amount, converted by molar mass. Like-named read-outs stand apart in the source and are kept apart here.

Regarding `OC[C@H]1O[C@@H]2O[C@H]3[C@H](O)[C@@H](O)[C@@H](O[C@H]4[C@H](O)[C@@H](O)[C@@H](O[C@H]5[C@H](O)[C@@H](O)[C@@H](O[C@H]6[C@H](O)[C@@H](O)[C@@H](O[C@H]7[C@H](O)[C@@H](O)[C@@H](O[C@H]8[C@H](O)[C@@H](O)[C@@H](O[C@H]1[C@H](O)[C@H]2O)O[C@@H]8CO)O[C@@H]7CO)O[C@@H]6CO)O[C@@H]5CO)O[C@@H]4CO)O[C@@H]3CO` [beta-CD, β-cyclodextrin], the Kc in series [1] is 0.473 mM⁻¹. Further, the “[Nimésulid] max.” value in series [1] (7 days) amounted to 0.09249 mg/mL.

As for `OC[C@H]1O[C@@H]2O[C@H]3[C@H](O)[C@@H](O)[C@@H](O[C@H]4[C@H](O)[C@@H](O)[C@@H](O[C@H]5[C@H](O)[C@@H](O)[C@@H](O[C@H]6[C@H](O)[C@@H](O)[C@@H](O[C@H]7[C@H](O)[C@@H](O)[C@@H](O[C@H]1[C@H](O)[C@H]2O)O[C@@H]7CO)O[C@@H]6CO)O[C@@H]5CO)O[C@@H]4CO)O[C@@H]3CO` [alpha-CD, α-cyclodextrin], in series [1], the Kc amounted to 0.045 mM⁻¹ and the “[Nimésulid] max.” value was found to be 0.07708 mg/mL. The solubility in water in series [2] was 127 mg/mL (≈ 131 mM).

`OC[C@H]1O[C@@H]2O[C@H]3[C@H](O)[C@@H](O)[C@@H](O[C@H]4[C@H](O)[C@@H](O)[C@@H](O[C@H]5[C@H](O)[C@@H](O)[C@@H](O[C@H]6[C@H](O)[C@@H](O)[C@@H](O[C@H]7[C@H](O)[C@@H](O)[C@@H](O[C@H]8[C@H](O)[C@@H](O)[C@@H](O[C@H]9[C@H](O)[C@@H](O)[C@@H](O[C@H]1[C@H](O)[C@H]2O)O[C@@H]9CO)O[C@@H]8CO)O[C@@H]7CO)O[C@@H]6CO)O[C@@H]5CO)O[C@@H]4CO)O[C@@H]3CO` [gamma-CD, γ-cyclodextrin]: in series [1], the Kc is 0.0646 mM⁻¹ and the “[Nimésulid] max.” value was 0.1449 mg/mL. Also, the solubility in water in series [2] was 236 mg/mL (≈ 182 mM).

Source of the values: patent publication US8865887B2, “Method for synthesizing calixarene and/or cyclodextrin copolymers, terpolymers and tetrapolymers, and uses thereof” (priority 2009, dated 2014).
